Consider 25 compounds from patent US12377100B2 (GILEAD SCIENCES, INC., priority 2015, dated 2025).

Holding throughout (assay type): cell-based
Holding throughout (settings): PBMC, human PBMCs, 24 hours incubation

One assay relates to IL12p40. The assay can be described thus: PBMC cytokine profiling assay, IL12-p40 induction. How it is done:
(§1) Certain compounds disclosed herein we tested according to the procedure described below. Additionally, certain reference compounds were prepared and tested along with the compounds of the present disclosure.
(§2) Compounds were dissolved and stored in DMSO (Sigma-Aldrich, St. Louis, MO) at 10 mM concentration.
(§3) Cryopreserved human PBMCs isolated from healthy donors were purchased from StemCell Technologies (Vancouver, Canada). Cell culture medium used was RPMI with L-Glutamine (Mediatech, Manassas, VA) supplemented with 10% fetal bovine serum (Hyclone, GE Healthcare, Logan, UT) and Penicillin-Streptomycin (Mediatech). Human TNFα, IL12p40, and IFNα2a 384-well Assay capture plates, standards, buffers and processing reagents were obtained from MesoScale Discovery Technologies (MSD; Rockville, MD).
(§4) Cryopreserved human PBMCs (1×10e8 cells/ml) were thawed at 37° C. and resuspended in 25 mL warm cell culture medium. The cells were pelleted at 200×g (Beckman Avanti J-E) for 5 min and resuspended in 20 mL of fresh culture media. Cells were counted using a Cellometer (Nexcelcom Bioscience), adjusted to 2×10e6 cells, and incubated for 2 hours in an incubator set at 37° C., 5% CO2 to recover from cryopreservation. Compounds were serially diluted in DMSO at half-log steps to generate a 10-point dose range. Using a Bravo pipette equipped with a 384 well head (Agilent), 0.4 μL of compound was transferred to each well of a 384 well black, clear bottom plate (Greiner Bio-One, Germany) containing 30 μL of cell culture medium. Recovered PBMCs were then dispensed into the assay plate at 50 μL per well (100k cells/well) using the MicroFlow multichannel dispenser (Biotek). Final DMSO concentration was 0.5%. DMSO was used as the negative control. The plates were incubated for 24 hours at 37° C. PBMCs in the assay plate were pelleted by centrifugation (Beckman Avanti J-E) at 200×g for 5 min.
(§5) Using a Biomek FX 384 well pipetting station (Beckman), conditioned culture medium (CCM) from the assay plate was transferred to MSD capture plates customized for each cytokine. For IFNα and IL12-p40 detection, 25 μL and 20 μL of CCM were added directly to each capture plate, respectively. For TNFα detection, CCM was diluted 1:9 in fresh culture medium, and 20 μL of diluted CCM was used. Serially diluted calibration standards for each cytokine were used to generate standard curves and establish assay linearity. The plates were sealed and incubated overnight at 4° C. in a plate shaker (Titer Plate) set at 200 rpm. On the following day, antibodies specific for each cytokine were diluted 1:50 in MSD Diluent 100 antibody dilution buffer. Diluted antibodies were added to corresponding capture plates at 10 μL/well, and incubated at RT for 1-2 hrs in the shaker. The plates were washed with PBST buffer (3×, 60 μl/well) using a Biotek Multiflow plate washer. MSD Read Buffer diluted to 2× in deionized water and 35 μL/well was added via Biomek FX instrument. The plates were read immediately in a MSD6000 reader. Data were normalized to positive and negative controls in each assay plate. AC50 values represent compound concentrations at half-maximal effect based on normalized percent activation and calculated by non-linear regression using Pipeline Pilot software (Accelrys, San Diego, CA).

The subject of the next assay is TNFα. The assay can be described thus: PBMC cytokine profiling assay, TNFα induction. The method, then:
as §1, §2, §3, §4, §5

A further assay relates to IFNα. Put plainly: PBMC cytokine profiling assay, IFNα induction. How it is done: as §1, §2, §3, §4, §5

For orientation: AC50 means the midpoint of the concentration-response curve, whichever way the signal moves. Lower therefore signals activity at low concentration. Turning to `CCC[C@@H](CO)Nc1nc(N)nc2c(C)ccnc12` [Example 26E, (S)-2-((2-amino-8-methylpyrido[3,2-d]pyrimidin-4-yl)amino)pentan-1-ol], the AC50 in the assay on IL12p40 (Homo sapiens, 24 h) was found to be 1.7 µM; with TNFα (Homo sapiens, 24 h), 2.3 µM; with IFNα (Homo sapiens, 24 h), 13.5 µM.
Taken in the same sequence, the figures for `CCC[C@@H](CO)Nc1nc(N)nc2cccnc12` [Example 27C, (S)-2-((2-amino-[3,2-d]pyrimidin-4-yl)amino)pentan-1-ol] were 0.42 µM, 0.52 µM and 2 µM.
`CCC[C@H](Nc1nc(N)nc2cccnc12)C(F)(F)F` [Example 28, (S)—N^4-(1,1,1-trifluoropentan-2-yl)pyrido[3,2-d]pyrimidine-2,4-diamine]: the AC50 in the assay with IL12p40 (Homo sapiens, 24 h) was found to be 28.2 µM; in the assay on TNFα (Homo sapiens, 24 h), 28.6 µM; in the assay with IFNα (Homo sapiens, 24 h), 45 µM.
Taken in the same sequence, the figures for `Nc1nc(NCCCC(F)(F)F)c2ncccc2n1` [Example 29, N^4-(4,4,4-trifluorobutyl)pyrido[3,2-d]pyrimidine-2,4-diamine] were 15.5 µM, 18.3 µM and 3.9 µM.
For the compound `CCC[C@H](Nc1nc(N)nc2cccnc12)C(N)=O` [Example 30B, (S)-2-((2-aminopyrido[3,2-d]pyrimidin-4-yl)amino)pentanamide], the AC50 in the assay with IL12p40 (Homo sapiens, 24 h) was 8.6 µM; in the assay on TNFα (Homo sapiens, 24 h), 10.6 µM; with IFNα (Homo sapiens, 24 h), above 50 µM.
Taken in the same sequence, the figures for `CCC[C@H](Nc1nc(N)nc2cccnc12)C(=O)NC` [Example 31, (S)-2-((2-aminopyrido[3,2-d]pyrimidin-4-yl)amino)-N-methylpentanamide] were 4.7 µM, 4.7 µM and 32.9 µM.
On the same counts, the results for `CCCCNc1nc(N)nc2ccc(C(F)(F)F)nc12` [Example 32, N^4-butyl-6-(trifluoromethyl)pyrido[3,2-d]pyrimidine-2,4-diamine] are above 50 µM, above 50 µM and above 50 µM.
On to `CCC[C@@H](CO)Nc1nc(N)nc2ccc(C)nc12` [Example 33, (S)-2-((2-amino-6-methylpyrido[3,2-d]pyrimidin-4-yl)amino)pentan-1-ol], for which the AC50 in the assay with IL12p40 (Homo sapiens, 24 h) came out at 0.85 µM; in the assay on TNFα (Homo sapiens, 24 h), 0.92 µM; in the assay with IFNα (Homo sapiens, 24 h) it was 5.9 µM.
On the same counts, the results for `CCC[C@H](Nc1nc(N)nc2cccnc12)C(=O)NCCO` [Example 34, (S)-2-((2-aminopyrido[3,2-d]pyrimidin-4-yl)amino)-N-(2-hydroxyethyl)pentanamide] are 10.9 µM, 12.2 µM and above 50 µM.
Taken in the same sequence, the figures for `CCC[C@H](Nc1nc(N)nc2cccnc12)C(=O)NCC(C)(C)O` [Example 35, (S)-2-((2-aminopyrido[3,2-d]pyrimidin-4-yl)amino)-N-(2-hydroxy-2-methylpropyl)pentanamide] were 22.6 µM, 39.4 µM and above 50 µM.
Taken in the same sequence, the figures for `CCC[C@H](Nc1nc(N)nc2cccnc12)C(=O)NCCN` [Example 36, (S)—N-(2-aminoethyl)-2-((2-aminopyrido[3,2-d]pyrimidin-4-yl)amino)pentanamide] were 10.8 µM, 21.5 µM and above 50 µM.
With `CCC[C@H](Nc1nc(N)nc2cccnc12)C(=O)NCc1ccccn1` [Example 37, (S)-2-((2-aminopyrido[3,2-d]pyrimidin-4-yl)amino)-N-(pyridin-2-ylmethyl)pentanamide], the AC50 in the assay with IL12p40 (Homo sapiens, 24 h) is above 50 µM; in the assay with TNFα (Homo sapiens, 24 h), above 50 µM; in the assay on IFNα (Homo sapiens, 24 h), above 50 µM.
Regarding `CCC[C@H](CO)Nc1nc(N)nc2ccc(C)nc12` [Example 38C, (R)-2-((2-amino-6-methylpyrido[3,2-d]pyrimidin-4-yl)amino)pentan-1-ol], the AC50 was above 50 µM in the assay with IL12p40 (Homo sapiens, 24 h); above 50 µM in the assay with TNFα (Homo sapiens, 24 h); above 50 µM in the assay on IFNα (Homo sapiens, 24 h).
Take `CCCC[C@H](CO)Nc1nc(N)nc2ccc(C)nc12` [Example 39C, (R)-2-((2-amino-6-methylpyrido[3,2-d]pyrimidin-4-yl)amino)hexan-1-ol]: the AC50 in the assay on IL12p40 (Homo sapiens, 24 h) was 41.5 µM; with TNFα (Homo sapiens, 24 h), above 50 µM; in the assay on IFNα (Homo sapiens, 24 h), above 50 µM.
For `CCCC[C@@H](CO)Nc1nc(N)nc2ccc(C)nc12` [Example 40C, (S)-2-((2-amino-6-methylpyrido[3,2-d]pyrimidin-4-yl)amino)hexan-1-ol], the AC50 in the assay with IL12p40 (Homo sapiens, 24 h) turned out to be 0.87 µM; in the assay with TNFα (Homo sapiens, 24 h) it was 0.94 µM; with IFNα (Homo sapiens, 24 h) it was 2.4 µM.
For `CCCCNc1nc(N)nc2cc(Cl)cnc12` [Example 41, N^4-butyl-7-chloropyrido[3,2-d]pyrimidine-2,4-diamine], the AC50 amounted to 9.1 µM in the assay on IL12p40 (Homo sapiens, 24 h); 11 µM in the assay on TNFα (Homo sapiens, 24 h); 13 µM in the assay on IFNα (Homo sapiens, 24 h).
`CCC[C@@H](CO)Nc1nc(N)nc2cc(OC)cnc12` [Example 42B, (S)-2-((2-amino-7-methoxypyrido[3,2-d]pyrimidin-4-yl)amino)pentan-1-ol]: the AC50 was 0.9 µM with IL12p40 (Homo sapiens, 24 h); 1.1 µM with TNFα (Homo sapiens, 24 h); 3.6 µM in the assay with IFNα (Homo sapiens, 24 h).
On the same counts, the results for `CCC[C@@H](CO)Nc1nc(N)nc2cc(F)cnc12` [Example 43C, (S)-2-((2-amino-7-fluoropyrido[3,2-d]pyrimidin-4-yl)amino)pentan-1-ol] are 1 µM, 1.1 µM and 10.9 µM.
On the same counts, the results for `CCCC[C@H](CO)Nc1nc(N)nc2cc(F)cnc12` [Example 44, (R)-2-((2-amino-7-fluoropyrido[3,2-d]pyrimidin-4-yl)amino)hexan-1-ol] are 2.4 µM, 3 µM and above 50 µM.
On the same counts, the results for `CCCC[C@@H](CO)Nc1nc(N)nc2cc(F)cnc12` [Example 45, (S)-2-((2-amino-7-fluoropyrido[3,2-d]pyrimidin-4-yl)amino)hexan-1-ol] are 1.3 µM, 1.6 µM and 8.3 µM.
Take `CCCC[C@H](CO)Nc1nc(N)nc2cc(F)c(F)cc12` [Example 46C, (R)-2-((2-amino-6,7-difluoroquinazolin-4-yl)amino)hexan-1-ol]: the half-maximal activity concentration (AC50) in the assay with IL12p40 (Homo sapiens, 24 h) is 28.5 µM; in the assay on TNFα (Homo sapiens, 24 h), 28.6 µM; in the assay on IFNα (Homo sapiens, 24 h), above 50 µM.
Taken in the same sequence, the figures for `CCCC[C@H](CO)Nc1nc(N)nc2ccccc12` [Example 47B, (R)-2-((2-aminoquinazolin-4-yl)amino)hexan-1-ol] were 2 µM, 2.7 µM and above 50 µM.
Taken in the same sequence, the figures for `CCCC[C@@H](CO)Nc1nc(N)nc2ccccc12` [Example 48, (S)-2-((2-aminoquinazolin-4-yl)amino)hexan-1-ol] were 0.71 µM, 0.85 µM and 0.57 µM.
Regarding `C[C@@H](CN)Nc1nc(N)nc2cccnc12` [Example 49, (S)—N^4-(1-aminopropan-2-yl)pyrido[3,2-d]pyrimidine-2,4-diamine], the AC50 was 18.1 µM in the assay on IL12p40, 22.4 µM in the assay on TNFα and 41.6 µM in the assay on IFNα.
As for `CCCC[C@H](CN)Nc1nc(N)nc2cccnc12` [Example 50, (R)—N^4-(1-aminohexan-2-yl)pyrido[3,2-d]pyrimidine-2,4-diamine], the AC50 is 23.1 µM with IL12p40 (Homo sapiens, 24 h); 26.9 µM with TNFα (Homo sapiens, 24 h); above 50 µM with IFNα (Homo sapiens, 24 h).
